Like-named read-outs stand apart in the source and are kept apart here.
Columns and labels:
human 11β-HSD1 = biological target: T1, human 11β-HSD1 (Homo sapiens, UniProt P28845); test: 11β-HSD1 reductase activity (cortisone to cortisol) in lysates of stably transfected HEK-293 cells; format: biochemical; settings: for remaining activity at 20 µM: 20 μM compound, 100 nM cortisone, HEK-293 cell lysates, read-out: 11β-HSD1 % of control; for IC50: cell lysates
T1 construct: expressed in transfected cells
T1 sequence (P28845 whole entry): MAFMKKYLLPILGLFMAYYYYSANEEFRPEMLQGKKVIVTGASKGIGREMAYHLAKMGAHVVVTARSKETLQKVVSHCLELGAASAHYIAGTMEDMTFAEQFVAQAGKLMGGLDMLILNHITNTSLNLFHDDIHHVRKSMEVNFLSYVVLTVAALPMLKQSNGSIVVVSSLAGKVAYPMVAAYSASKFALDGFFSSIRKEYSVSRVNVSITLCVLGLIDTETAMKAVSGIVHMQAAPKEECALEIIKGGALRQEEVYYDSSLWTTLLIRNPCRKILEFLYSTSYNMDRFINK
Description: (§1) Cells were grown in 10 cm dishes to 80% confluence and incubated for 16 h in steroid-free medium (charcoal-treated fetal calf serum (FCS) from HyClone, Logan, Utah). Cells were rinsed once with phosphate-buffered saline (PBS), detached and centrifuged for 3 min at 150×g. The supernatant was removed and the cell pellet quick-frozen in a dry-ice ethanol bath. At the day of experiment, cell pellets were resuspended in buffer TS2 (100 mM NaCl, 1 mM EGTA, 1 mM EDTA, 1 mM MgCl2, 250 mM sucrose, 20 mM Tris-HCl, pH 7.4), sonicated and activities determined immediately. The rate of conversion of cortisol to cortisone or the reverse reaction was determined in 96-well optical PCR reaction plates (Applied Biosystems, Foster City, Calif.) in a final volume of 22 μl, and the tubes were capped during the reaction to avoid evaporation.
Reactions were initiated simultaneously by adding 10 μl of cell lysate and 12 μl of TS2 buffer containing the appropriate concentration of the inhibitory compound to be tested, NADPH, 30 nCi of [1,2,6,7-^3H]-cortisone and unlabeled cortisone, whereby final concentrations were 400 μM NADPH and 100 nM cortisone. Activities were determined immediately after cell disruption by measuring the conversion of radiolabeled cortisone to cortisol for 10 min.
(§2) Enzyme kinetics were analyzed by non-linear regression using Data Analysis Toolbox (MDL Information Systems Inc.) assuming first-order rate kinetics. Data represent mean ±SD of four to five independent experiments.
(§3) Assay with 20 μM of the corresponding compound in the reaction mixture, added simultaneously with the substrate:
(§4) Determination of IC50 values, using 7 different inhibitor concentrations at factor 2 intervals: […]

human 11β-HSD2 = biological target: T2, human 11β-HSD2 (Homo sapiens, UniProt P80365); test: 11β-HSD2 oxidase activity (cortisol to cortisone) in lysates of stably transfected HEK-293 cells; format: biochemical; settings: for remaining activity at 20 µM: read-out: 11β-HSD2 % of control
T2 construct: expressed in transfected cells
T2 sequence (P80365 1-405): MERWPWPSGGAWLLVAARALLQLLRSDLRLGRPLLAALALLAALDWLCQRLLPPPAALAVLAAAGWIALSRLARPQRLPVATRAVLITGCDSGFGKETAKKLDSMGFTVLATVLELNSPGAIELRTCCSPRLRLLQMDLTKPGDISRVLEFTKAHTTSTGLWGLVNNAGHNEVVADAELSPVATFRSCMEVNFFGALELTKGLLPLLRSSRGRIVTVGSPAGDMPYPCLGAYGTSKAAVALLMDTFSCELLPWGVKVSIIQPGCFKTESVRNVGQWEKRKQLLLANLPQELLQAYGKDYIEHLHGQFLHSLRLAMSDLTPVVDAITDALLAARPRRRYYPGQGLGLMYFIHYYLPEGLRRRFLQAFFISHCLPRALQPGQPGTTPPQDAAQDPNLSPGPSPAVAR
Description: as §1
Reactions were initiated by simultaneously adding 10 μl of cell lysate and 12 μl of TS2 buffer containing the appropriate concentration of the inhibitory compound to be tested, NAD^+, 30 nCi of [1,2,6,7-^3H]-cortisol and unlabeled cortisol. […] Stock solutions of the inhibitors in methanol or DMSO were diluted in TS2 buffer to yield the appropriate concentrations, whereby the concentration of methanol or DMSO in the reactions were kept below 0.1%. Control reactions with or without 0.1% of the solvent were performed. Incubation was at 37° C. for 10 min with shaking, reactions were terminated by adding 10 μl of stop solution containing 2 mM of unlabeled cortisol and cortisone dissolved in methanol. The conversion of radiolabeled cortisol was determined by separation of cortisol and cortisone using TLC and a solvent system of 9:1 (v/v) chloroform:methanol, followed by scintillation counting.
as §2, §3, §4

[1] = 20 μM compound, 25 nM cortisol, HEK-293 cell lysates
[2] = cell lysates, 7 inhibitor concentrations at factor 2 intervals, experiment 2, read-out: IC 50 11β-HSD2, determination 2
[3] = cell lysates, 7 inhibitor concentrations at factor 2 intervals, experiment 3, read-out: IC 50 11β-HSD2, determination 3

| Compound | remaining activity at 20 µM (human 11β-HSD1) [%] | remaining activity at 20 µM (human 11β-HSD2; [1]) [%] | further results |
| --- | --- | --- | --- |
| CCN(CC(O)COc1cc(C)c(Cl)c(C)c1)S(=O)(=O)O (stereo not drawn) [BNW1] | 102 | 96.8 | – |
| COc1ccc(OC)c(C2C(C(=O)c3ccc(Br)cc3)=C(O)C(=O)N2CCCn2ccnc2)c1 (stereo not drawn) [BNW2] | 78.8 | 78 | – |
| CCCCOc1ccc(C(=O)C2=C(O)C(=O)N(CCOC)C2c2cccnc2)c(C)c1 (stereo not drawn) [BNW3] | 60.3 | 53.6 | – |
| Cc1nn(CC(=O)Nc2sc(C)c(C)c2C(N)=O)c(C)c1[N+](=O)[O-] [BNW4] | 82.2 | 95 | – |
| Cc1n[nH]c(O)c1C(c1ccc(-c2ccc(Cl)c(C(=O)O)c2)o1)c1c(O)n[nH]c1C [BNW5] | 69.8 | 97.5 | – |
| COc1ccc(C(=O)NCc2cccc(Cl)c2Cl)c(C(F)(F)F)c1 [BNW6] | 79.6 | 145 | – |
| NC(=O)c1c(NC(=O)C2CC=CCC2C(=O)O)sc2c1CCCCC2 (stereo not drawn) [BNW8] | 41.7 | 103 | – |
| COCCC1C(=O)C(O)=C(C(=O)c2ccc(OC)c(C)c2)C1c1ccc(Cl)cc1Cl (stereo not drawn) [BNW9] | 30.7 | 77.4 | – |
| Cc1cccc(C)c1C1C(SCC(=O)Nc2c(Cl)cccc2Cl)=NN=C1c1cccc([S+]([O-])N(C)C)c1 (stereo not drawn) [BNW11] | 70.1 | 121 | – |
| CCN(CC)S(=O)(=O)c1ccc(Cl)c(C(=O)Nc2nc3ccc(S(C)(=O)=O)cc3s2)c1 [BNW12] | 85.4 | 132 | – |
| COC(=O)[C@@]1(C)CC[C@]2(C)CC[C@]3(C)C(=CC(=O)[C@@H]4[C@@]5(C)CC[C@H](Oc6ccccc6C(=O)O)C(C)(C)[C@@H]5CC[C@]43C)[C@@H]2C1 [BNW13, (2S,4aS,6aS,6bR,8aR,10S,12aS,12bR,14bR)-10-(2-Carboxy-phenoxy)-2,4a,6a,6b,9,9,12a-heptamethyl-13-oxo-1,2,3,4,4a,5,6,6a,6b,7,8,8a,9,10,11,12,12a,12b,13,14b-icosahydro-picene-2-carboxylic acid methyl ester] | 3.9 | 14.4 | IC50 (human 11β-HSD1; 7 inhibitor concentrations at factor 2 intervals, experiment 1, read-out: IC 50 11β-HSD1, determination 1): 666 nM; IC50 (human 11β-HSD1; 7 inhibitor concentrations at factor 2 intervals, experiment 2, read-out: IC 50 11β-HSD1, determination 2): 756 nM; IC50 (human 11β-HSD1; 7 inhibitor concentrations at factor 2 intervals, experiment 3, read-out: IC 50 11β-HSD1, determination 3): 652 nM; IC50 (human 11β-HSD2; [2]): 263 nM; IC50 (human 11β-HSD2; [3]): 299 nM |
| CC1(C)[C@@H](OCO)CC[C@]2(C)[C@H]3C(=O)C=C4C5=C[C@@](C)(C(=O)O)CC[C@]5(C)CC[C@@]4(C)[C@]3(C)CC[C@@H]12 [BNW15] | 50.4 | 56.9 | – |
| CCOc1ccc(C2c3cc(OCC)c(OCC)cc3CC(=O)N2c2ccc(C(=O)O)cc2)cc1OCC (stereo not drawn) [BNW17] | 88.2 | 120 | – |
| CSc1nc2cc(C)c(C)cc2n1C1OC(CO)C(O)C1O (stereo not drawn) [BNW18] | 92 | 82.8 | – |
| COCCN1C(=O)C(O)=C(C(=O)c2ccc(OC)c(C)c2)C1c1ccc(C)cc1 (stereo not drawn) [BNW20] | 46.8 | 121 | – |
| COc1ccc(C(=O)C2=C(O)C(=O)N(CCCn3ccnc3)C2c2ccccc2)cc1Cl (stereo not drawn) [BNW21] | 48.9 | 122 | – |
| CCOc1ccc(C2C(C(=O)c3ccc(Cl)cc3)=C(O)C(=O)N2CCCn2ccnc2)cc1OCC (stereo not drawn) [BNW22] | 41.3 | 104 | – |
| COc1cccc(/C=N/NC(=O)CSCc2ccccc2C)c1OC [BNW23] | 85.1 | 133 | – |
| CC1(C)[C@@H](N)CC[C@]2(C)[C@H]3C(=O)C=C4[C@@H]5C[C@@](C)(C(=O)O)CC[C@]5(C)CC[C@@]4(C)[C@]3(C)CC[C@@H]12 [BNW25, (2S,4aS,6aS,6bR,8aR,10S,12aS,12bR,14bR)-10-Amino-2,4a,6a,6b,9,9,12a-heptamethyl-13-oxo-1,2,3,4,4a,5,6,6a,6b,7,8,8a,9,10,11,12,12a,12b,13,14b-icosahydro-picene−2-carboxyiic acid] | 2.9 | – | IC50 (human 11β-HSD1; mean of determinations 1-3, read-out: IC 50 11β-HSD1, Mean): 172 nM; IC50 (human 11β-HSD2; [2]): 54.6 nM; IC50 (human 11β-HSD2; [3]): 64.9 nM; remaining activity at 20 µM (human 11β-HSD2): 13.9%; IC50 (human 11β-HSD2; read-out: IC 50 11β-HSD2, Mean): 59.7 nM |
| COc1ccc(CNC(=O)C2CCC(=O)N2C2CCCC2)cc1OC (stereo not drawn) [BNW26] | 94.1 | 137 | – |
| COc1cc2c(cc1OC)C(COc1ccc([N+](=O)[O-])cc1)N(C(=O)c1ccc(Cl)c([N+](=O)[O-])c1)CC2 (stereo not drawn) [BNW27] | 78.6 | 126 | – |
| COc1cc(/C=N/NC(=O)CSc2nc3ccccc3n2Cc2ccc(C)cc2)cc(OC)c1OC(C)=O [BNW28] | 76.7 | 137 | – |
| CCN(CC)S(=O)(=O)c1ccc(OC)c(-c2nnc(-c3cc(S(=O)(=O)N(CC)CC)ccc3OC)o2)c1 [BNW29] | 75.3 | 115 | – |
| CCC(Sc1nnc(-c2ccc(OC)c(OC)c2)c(-c2ccc(OC)c(OC)c2)n1)C(=O)N(CC)CC (stereo not drawn) [BNW30] | 48.4 | 140 | – |

From US20080153791A1, “11Beta -Hydroxysteroid Dehydrogenases” (onpharm GmbH, priority 2005, published 2008)
